Counter-ions that a name gives are not always drawn. Like-named read-outs stand apart in the source and are kept apart here.
System: transient cerebral ischemia in mongolian gerbils
Assay: Protective effect of cerebralischemia: survival ratio after bilateral common carotid occlusion and reperfusion in gerbils
Format: in vivo, mongolian gerbil
Settings: Meriones unguiculatus, ip; for responders at 5 mg/kg: read-out: Survival ratio
Experimental: Test Example 1 Protective effect of cerebralischemia
Male mongolian gerbils (Seiwa/8-10 wks) (n=8-10) were used. Bilateral common carotid arteries were occluded after the incision of the center of the neck under ether anesthesia. Global cerebral ischemia was induced by the occlusion of bilateral common carotid arteries (15 minutes), and after that these arteries were reperfused. Test sample was administered intraperiatonelly 30 minutes before occlusion and 90 minutes after reperfusion. In the control group, vehicle (distilled water, saline or 5% gum arabic) was administered in the same fashion. Survival ratio was estimated at 8 hr after reperfusion (Table 2).

[1] = 5 mg/kg, 30 min before occlusion and 90 min after reperfusion, estimated 8 hr after reperfusion, control 0

SMILES	responders at 5 mg/kg [1]	further results
CC(C)Oc1cccc(NC(=O)NCc2c(-c3ccccc3)c3ccccc3c(=O)n2C)c1 [Example 16, N-[(1,2-Dihydro-2-methyl-1-oxo-4-phenylisoquinolin-3yl)methyl]-N'-(3-isopropoxyphenyl)urea]	88%	–
CC(C)Oc1cccc(CC(=O)OCc2c(-c3ccccc3)c3cc(Cl)ccc3c(=O)n2C)c1 [Example 32, (6-Chloro-1,2-dihydro-2-methyl-1-oxo-4-phenylisoquinolin-3-yl)methyl α-(3-isopropoxyphenyl)acetate]	63%	–
CN(C)CCCc1cccc(NC(=O)NCc2c(-c3ccccc3)c3cc(Cl)ccc3c(=O)n2C)c1 [44 (HCl), N-[(6-Chloro-1,2-dihydro-2-methyl-1-oxo-4-phenylisoquinolin-3-yl)methyl]-N'-{3-[3-(dimethylamino)propyl]phenyl}urea]	63%	–
CC(C)Oc1cccc(N(C)C(=O)N(C)Cc2c(-c3ccccc3)c3cc(Cl)ccc3c(=O)n2C)c1 [Example 24, N-[(6-Chloro-1,2-dihydro-2-methyl-1-oxo-4-phenylisoquinolin-3-yl)methyl]-N'-(3-isopropoxyphenyl)-N,N'-dimethylurea]	75%	–
Cn1c(CNC(=O)Nc2cccc(C(=O)O)c2)c(-c2ccccc2)c2cc(Cl)ccc2c1=O [17 (Na), N-(3-Carboxyphenyl)-N'-[(6-chloro-1,2-dihydro-2-methyl-1-oxo-4-phenylisoquinolin-3-yl)methyl]urea sodium salt]	–	responders at 5 mg/kg (8 h): 67%
CN(C)CCOc1cccc(NC(=O)NCc2c(-c3ccccc3)c3cc(Cl)ccc3c(=O)n2C)c1 [45 (HCl), N-[(6-Chloro-1,2-dihydro-2-methyl-1-oxo-4-phenylisoquinolin-3-yl)methyl]-N'-{3-[2-(dimethylamino)ethoxy]phenyl}urea]	82%	–
Cn1c(CNC(=O)Nc2ccc3c(c2)CCC3N)c(-c2ccccc2)c2cc(Cl)ccc2c1=O (stereo not shown) [50 (HCl), N-(1-Aminoindan-5-yl)-N'-[(6-chloro-1,2-dihydro-2-methyl-1-oxo-4-phenylisoquinolin-3-yl)methyl]urea hydrochloride]	75%	–
CN(C)Cc1cccc(NC(=O)NCc2c(-c3ccc(F)cc3)c3ccccc3c(=O)n2C)c1 [53 (HCl), N-{[4-(4-Fluorophenyl)-1,2-dihydro-2-methyl-1-oxoisoquinolin-3-yl]methyl}-N'-[3-(dimethylaminomethyl)phenyl]urea hydrochloride]	75%	–
Cn1c(CNC(=O)NCCCn2ccnc2)c(-c2ccccc2)c2cc(Cl)ccc2c1=O [47 (HCl), N-[(6-Chloro-1,2-dihydro-2-methyl-1-oxo-4-phenylisoquinolin-3-yl)methyl]-N'-[3-(1-imidazolyl)propyl]urea]	75%	–
CC(C)Oc1cccc(N(CC(=O)O)C(=O)NCc2c(-c3ccccc3)c3cc(Cl)ccc3c(=O)n2C)c1 [22 (Ma), N-Carboxymethyl-N'-[(6-chloro-1,2-dihydro-2-methyl-1-oxo-4-phenylisoquinolin-3-yl)methyl]-N-(3isopropoxyphenyl)urea sodium salt]	–	responders at 5 mg/kg (8 h): 63%
CC(C)Oc1cccc(OC(=O)NCc2c(-c3ccccc3)c3cc(Cl)ccc3c(=O)n2C)c1 [Example 29, 3-Isopropoxyphenyl N-[(6-chloro-1,2-dihydro-2-methyl-1-oxo-4-phenylisoquinolin-3-yl)methyl]carbamate]	–	responders at 5 mg/kg (8 h): 75%
Cn1c(CNC(=O)Nc2cccc(CN)c2)c(-c2ccccc2)c2cc(Cl)ccc2c1=O [51 (HCl), N-[3-(Aminomethyl)phenyl]-N'-[(6-chloro-1,2-dihydro-2-methyl-1-oxo-4-phenylisoquinolin-3-yl)methyl]urea hydrochloride]	100%	–
CN(C)c1cccc(NC(=O)NCc2c(-c3ccccc3)c3cc(Cl)ccc3c(=O)n2C)c1 [14 (HCl), N-[(6-Chloro-1,2-dihydro-2-methyl-1-oxo-4-phenylisoquinolin-3-yl)methyl]-N'-(3-N,N-dimethylaminophenyl)urea hydrochloride]	63%	–
CNCc1cccc(NC(=O)NCc2c(-c3ccccc3)c3cc(Cl)ccc3c(=O)n2C)c1 [48 (HCl), N-[(6-Chloro-1,2-dihydro-2-methyl-1-oxo-4-phenylisoquinolin-3-yl)methyl]-N'-[3-(methylamino)methylphenyl]urea hydrochloride]	88%	–
CCN(CC)Cc1cccc(NC(=O)NCc2c(-c3ccccc3)c3cc(Cl)ccc3c(=O)n2C)c1 [39 (HCl), N-[(6-Chloro-1,2-dihydro-2-methyl-1-oxo-4-phenylisoquinolin-3-yl)methyl]-N'-[3-(diethylaminomethyl)phenyl]urea]	63%	–
Cn1c(CNC(=O)Cc2cccc(C(=O)O)c2)c(-c2ccccc2)c2cc(Cl)ccc2c1=O [28 (Na), N-(6-Chloro-1,2-dihydro-2-methyl-1-oxo-4-phenylisoquinolin-3-yl)methyl-α-(3-carboxyphenyl)acetamide sodium salt]	–	responders at 5 mg/kg (8 h): 75%
CN(C)Cc1ccc(NC(=O)NCc2c(-c3ccccc3)c3cc(Cl)ccc3c(=O)n2C)cc1 [43 (HCl), N-[(6-Chloro-1,2-dihydro-2-methyl-1-oxo-4-phenylisoquinolin-3-yl)methyl]-N'-[4-(dimethylaminomethyl)phenyl]urea]	63%	–
Cn1c(CNC(=O)Nc2cccc(CN3CCCC3)c2)c(-c2ccccc2)c2cc(Cl)ccc2c1=O [40 (HCl), N-[(6-Chloro-1,2-dihydro-2-methyl-1-oxo-4-phenylisoquinolin-3-yl)methyl]-N'-[3-(1-pyrrolidinomethyl)phenyl]urea]	75%	–
CCN(CC)CCc1cccc(NC(=O)NCc2c(-c3ccccc3)c3cc(Cl)ccc3c(=O)n2C)c1 [41 (HCl), N-[(6-Chloro-1,2-dihydro-2-methyl-1-oxo-4-phenylisoquinolin-3-yl)methyl]-N'-{3-[2-(diethylamino)ethyl]phenyl}urea]	88%	responders at 0.3 mg/kg (0.3 mg/kg, 30 min before occlusion and 90 min after reperfusion, estimated 8 hr after reperfusion, control 0): 75%
CC(C)Oc1cccc(CC(=O)NCc2c(-c3ccccc3)c3cc(Cl)ccc3c(=O)n2C)c1 [Example 27, N-(6-Chloro-1,2-dihydro-2-methyl-1-oxo-4-phenylisoquinolin-3-yl)methyl-α-(3-isopropoxyphenyl)acetamide]	88%	–
CCNCc1cccc(NC(=O)NCc2c(-c3ccccc3)c3cc(Cl)ccc3c(=O)n2C)c1 [49 (HCl), N-[(6-Chloro-1,2-dihydro-2-methyl-1-oxo-4-phenylisoquinolin-3-yl)methyl]-N'-[3-(ethylaminomethyl)phenyl]urea hydrochloride]	88%	–

— patent US5527811A, “Isoquinolinyl compounds which are useful in treating cerebral vascular disorders” (Takeda Chemical Industries, Ltd., priority 1993, dated 1996)
